Values belong to the compound of their own block, whether it stands above or below them.
Tests used:
Assay type in all cases: cell-based
TRPV4 [1] = molecular target: T1, TRPV4 (Homo sapiens, UniProt Q9HBA0); test: fura-2 Ca2+ imaging dose-response in CCD […] cells (endogenous TRPV4), blocked by RN1734
TRPV4 [2] = molecular target: T1, TRPV4; test: fura-2 Ca2+ imaging dose-response in CCD […] cells (endogenous TRPV4)
TRPV4 [3] = molecular target: T1, TRPV4; test: inhibition of GSK101 ([…])-induced Ca2+ response, fura-2 imaging in CCD […] cells (endogenous TRPV4)

T1 sequence (Q9HBA0 whole entry): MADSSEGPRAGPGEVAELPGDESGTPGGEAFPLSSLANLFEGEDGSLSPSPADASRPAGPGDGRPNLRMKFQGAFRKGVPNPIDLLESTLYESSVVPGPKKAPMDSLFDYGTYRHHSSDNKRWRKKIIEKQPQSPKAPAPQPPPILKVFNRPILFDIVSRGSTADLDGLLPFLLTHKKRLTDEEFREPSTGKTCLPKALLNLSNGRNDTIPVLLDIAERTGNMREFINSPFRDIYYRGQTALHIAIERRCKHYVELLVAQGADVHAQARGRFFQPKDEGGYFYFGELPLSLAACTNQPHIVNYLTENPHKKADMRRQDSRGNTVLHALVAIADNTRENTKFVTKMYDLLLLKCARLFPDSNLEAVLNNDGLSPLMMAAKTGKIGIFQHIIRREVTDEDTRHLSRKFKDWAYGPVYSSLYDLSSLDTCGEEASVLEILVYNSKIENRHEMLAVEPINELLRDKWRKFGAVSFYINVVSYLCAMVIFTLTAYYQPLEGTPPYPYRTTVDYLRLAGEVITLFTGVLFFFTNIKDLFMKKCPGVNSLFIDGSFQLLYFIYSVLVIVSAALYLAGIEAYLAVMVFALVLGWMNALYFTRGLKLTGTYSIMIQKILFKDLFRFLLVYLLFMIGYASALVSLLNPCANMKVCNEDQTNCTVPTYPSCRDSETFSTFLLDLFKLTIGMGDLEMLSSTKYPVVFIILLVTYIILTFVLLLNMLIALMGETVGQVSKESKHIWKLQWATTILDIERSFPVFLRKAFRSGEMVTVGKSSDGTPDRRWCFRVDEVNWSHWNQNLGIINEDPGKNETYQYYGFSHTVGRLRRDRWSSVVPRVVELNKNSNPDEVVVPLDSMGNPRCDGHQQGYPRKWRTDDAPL

EC50 (TRPV4 [1]): 111 nM
SMILES: CCCCC/C=C\C/C=C\CC1OC1C/C=C\CCCC(=O)OC (stereo not drawn) [8,9-EET methylestel]

SMILES: CC(C)C[C@H](NC(=O)c1cc2ccccc2s1)C(=O)N1CCN(C(=O)[C@H](CO)NS(=O)(=O)c2ccc(Cl)cc2Cl)CC1 [GSK101, N-((1S)-1-{[4-((2S)-2-{[(2,4-dichlorophenyl)sulfonyl]amino}-3-hydroxypropanoyl)-1-piperazinyl]carbonyl}-3-methylbutyl)-1-benzothiophene-2-carboxamide]
EC50 (TRPV4 [2]): 231 nM

IC50 (TRPV4 [3]): 0.703 nM
SMILES: CC(C)NCCN(C(C)C)S(=O)(=O)c1ccc(Cl)cc1Cl [RN1734]
